{"source": "patent US3962282A", "about": "“Juvenile hormone mimics” (priority 1974, dated 1976)", "key": {"milkweed bug": {"system": "milkweed bug", "assay": "topical application to milkweed bug, fourth nymphal stage, maturation inhibition", "format": "in vivo", "conditions": "rating scale 0-3", "method_in_brief": "(§1)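 Compounds applied topically, 1 μL acetone solution at 10%, 1% or 0.5%, to ten specimens per insect per concentration, alongside acetone and untreated controls; scored after about 8–10 days. Juvenile/adult characteristics rated 0–3 (Tenebrio 0–4), ≥2 meaning unable to reproduce; unreported specimens died during metamorphosis.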"}, "[1]": {"system": "Mexican bean beetle larvae", "assay": "fumigant and residual activity in jars on Mexican bean beetle larvae", "format": "in vivo", "protocol": "Fumigant and residual activity of 2,6-dimethyl-9-(3,4-methylenedioxyphenyl)-2,6-nonadiene was determined in the following manner. One milliliter of a 1 percent, a 0.1 percent or a 0.01 percent solution of the test compound was placed in the bottom of a one pint jar. A control was prepared using just acetone. The acetone was allowed to evaporate and 10 Mexican bean beetle larvae were placed on a screen 5 inches from the bottom. The jar was closed for one week at which time the controls emerge as adults and the treated ones are rated as described above. The larvae are replaced weekly."}, "Mexican bean beetle": {"system": "Mexican bean beetle", "assay": "topical application to Mexican bean beetle, fourth larval stage, maturation inhibition", "format": "in vivo", "conditions": "rating scale 0-3", "method_in_brief": "as §1"}, "[2]": {"system": "Melon aphids (Aphis gossypi)", "assay": "melon aphids on dipped squash plants", "format": "in vivo", "conditions": "200 ppm, six days", "protocol": "Young squash plants were dipped for 30 seconds in aqueous solutions containing 200, 100, and 50 ppm. of 2.6-dimethyl-9-(3,4-methylenedioxyphenyl)-2,6-nonadiene. Three plants were treated at each concentration and three plants were used as controls. After the plants had dried, ten adult aphids (Aphis gossypi) were placed on each plant and allowed to feed. The plants were maintained under laboratory conditions. Twenty-four hours after they were placed on the plants, all adults were removed, leaving young nymphs. Six days after treatment, the total number of aphids on each plant was determined."}, "German cockroach nymphs": {"system": "German cockroach nymphs", "assay": "topical application to 50-day-old German cockroach nymphs", "format": "in vivo, Blattella germanica", "description": "In another test, the nonadiene was applied topically to 50-day-old German cockroach nymphs. The compound was applied in acetone as a […], or 0.5 percent solution. Acetone controls and nontreated controls were also run. The roaches were then maintained in the laboratory until the controls reproduced. […] The 1 percent and 0.5 percent treatments did reproduce."}, "Southern corn rootworm": {"system": "Southern corn rootworm", "assay": "Southern corn rootworm larvae in treated petri dishes, adult emergence", "format": "in vivo, Diabrotica undecimpunctata", "conditions": "21 days", "protocol": "Petri dishes containing 150 g. of sand were autoclaved for one hour. Corn seed which had been soaked overnight was rinsed first with a solution of 10 percent alcohol, 20 percent chlorox, and 70 percent water for 15 minutes and then with clear water. Three to four seeds were placed in each dish. The dishes were then moistened with 15 ml. of a 100 ppm. solution of a fungicide. After 24 hours, ten Southern corn rootworm eggs (Diabrotica undecimpunctata) were placed in each dish. The dishes were maintained in an incubator in the dark for 14 days. New petri dishes were prepared as described except that the eggs were not added and 2,6-diemthyl-9-(3,4-methylenedioxyphenyl)-2,6-nonadiene was added at a rate of 100 ppm. or 10 ppm. Ten dishes at each treatment rate and ten controls were used. Three larvae from the incubated dishes were placed in each of the treated dishes and each control dish. […] There were a total of 15 adults in the ten dishes treated at 10 ppm. and a total of 19 adults in the ten control dishes."}, "[3]": {"system": "Housefly (Musca domestica)", "assay": "housefly rearing diet test, percent adult emergence", "format": "in vivo", "protocol": "Test compounds were mixed with the rearing diet of houseflys at various levels. The prepared diet was then placed in an 8 oz. drinking cup. Three cups were prepared for each treatment level and three control cups. Housefly eggs (Musca domestica) were placed in each cup and they were maintained at 28°C. for 1 week. Fifty pupae were then removed from each cup and placed in a petri dish. After the control pupae had emerged into adults, the percent emergence in each dish was recorded. The test compounds used were 7,8-epoxy-4-ethyl-8-methyl-1-(3,4-methylenedioxyphenyl)-3-decene, 4,8-dimetyl-1-(3,4-methylenedioxyphenyl)-2,6-nonadiene and 2,6-dichloro-2,6-dimethyl-9-(3,4-methylenedioxyphenyl)nonane."}}, "note": "Where “and” joins values, the source holds several entries; their conditions need not be identical. Equal values may be shown once."}
{"smiles": "CC(C)=CCCC(C)=CCCc1ccc2c(c1)OCO2", "note": "[2,6-dimethyl-9-(3,4-methylenedioxyphenyl)-2,6-nonadiene]", "values": [{"measurement": "number of specimens in rating 3", "setting": "milkweed bug; 0.5%", "result": 10, "unit": "specimens"}, {"measurement": "number of specimens in rating 3", "setting": "milkweed bug; 1%", "result": 10, "unit": "specimens"}, {"measurement": "number of specimens in rating 3", "setting": "milkweed bug; 10%", "result": 5, "unit": "specimens"}, {"measurement": "number in rating 0", "setting": "[1]; Fifteenth Week, 0.01%", "result": 10}, {"measurement": "number in rating 0", "setting": "[1]; Fifteenth Week, 0.1%", "result": 10}, {"measurement": "number in rating 3", "setting": "[1]; Fifteenth Week, 1%", "result": 10}, {"measurement": "number in rating 0", "setting": "[1]; Fifth Week, 0.01%", "result": 10}, {"measurement": "number in rating 3", "setting": "[1]; Fifth Week, 0.1%", "result": 10}, {"measurement": "number in rating 3", "setting": "[1]; Fifth Week, 1%", "result": 10}, {"measurement": "number in rating 0", "setting": "[1]; First Week, 0.01% (0.1 mg.)", "result": 5}, {"measurement": "number in rating 2", "setting": "[1]; First Week, 0.01% (0.1 mg.)", "result": 1}, {"measurement": "number in rating 3", "setting": "[1]; First Week, 0.01% (0.1 mg.)", "result": 4}, {"measurement": "number in rating 3", "setting": "[1]; First Week, 0.1% (1 mg.)", "result": 10}, {"measurement": "number in rating 2", "setting": "[1]; First Week, 1% (10 mg.)", "result": 1}, {"measurement": "number in rating 3", "setting": "[1]; First Week, 1% (10 mg.)", "result": 9}, {"measurement": "number in rating 0", "setting": "[1]; Second Week, 0.01%", "result": 4}, {"measurement": "number in rating 2", "setting": "[1]; Second Week, 0.01%", "result": 2}, {"measurement": "number in rating 3", "setting": "[1]; Second Week, 0.01%", "result": 4}, {"measurement": "number in rating 3", "setting": "[1]; Second Week, 0.1%", "result": 10}, {"measurement": "number in rating 0", "setting": "[1]; Second Week, 1%", "result": 1}, {"measurement": "number in rating 3", "setting": "[1]; Second Week, 1%", "result": 10}, {"measurement": "number in rating 0", "setting": "[1]; Tenth Week, 0.01%", "result": 10}, {"measurement": "number in rating 0", "setting": "[1]; Tenth Week, 0.1%", "result": 5}, {"measurement": "number in rating 1", "setting": "[1]; Tenth Week, 0.1%", "result": 2}, {"measurement": "number in rating 2", "setting": "[1]; Tenth Week, 0.1%", "result": 1}, {"measurement": "number in rating 3", "setting": "[1]; Tenth Week, 0.1%", "result": 2}, {"measurement": "number in rating 3", "setting": "[1]; Tenth Week, 1%", "result": 10}, {"measurement": "number in rating 3", "setting": "[1]; Twenty-second Week, 1%", "result": 10}, {"measurement": "number of specimens in rating 3", "setting": "Mexican bean beetle; 0.5%", "result": 9, "unit": "specimens"}, {"measurement": "number of specimens in rating 3", "setting": "Mexican bean beetle; 1%", "result": 10, "unit": "specimens"}, {"measurement": "number of specimens in rating 3", "setting": "Mexican bean beetle; 10%", "result": 1, "unit": "specimens"}, {"measurement": "number of aphids per plant, Total", "setting": "[2]", "result": "15 and 13 and 22"}, {"measurement": "reproduction", "setting": "German cockroach nymphs; 0.5 percent", "result": "did reproduce"}, {"measurement": "reproduction", "setting": "German cockroach nymphs; 1 percent", "result": "did reproduce"}, {"measurement": "reproduction", "setting": "German cockroach nymphs; 10 percent solution", "result": "did not reproduce"}, {"measurement": "wing formation", "setting": "German cockroach nymphs; 10 percent solution", "result": "normal wing formation"}, {"measurement": "total adults in the ten dishes", "setting": "Southern corn rootworm; 10 ppm, 19 adults in ten control dishes", "result": 15, "unit": "adults"}, {"measurement": "adults emerged", "setting": "Southern corn rootworm; 100 ppm", "result": "no adults had emerged"}, {"measurement": "percent adult emergence, Cup 1", "setting": "[3]; 100 ppm in diet", "result": 90, "unit": "%"}, {"measurement": "percent adult emergence, Cup 2", "setting": "[3]; 100 ppm in diet", "result": 30, "unit": "%"}, {"measurement": "percent adult emergence, Cup 3", "setting": "[3]; 100 ppm in diet", "result": 10, "unit": "%"}, {"measurement": "control", "setting": "[3]; 500 ppm", "result": 100, "unit": "%"}, {"measurement": "percent adult emergence, Cup 1", "setting": "[3]; 500 ppm in diet", "result": 0, "unit": "%"}, {"measurement": "percent adult emergence, Cup 2", "setting": "[3]; 500 ppm in diet", "result": 0, "unit": "%"}, {"measurement": "percent adult emergence, Cup 3", "setting": "[3]; 500 ppm in diet", "result": 0, "unit": "%"}]}
